Measured values reported in patent US20100111888A1, “Organic Compounds and Compositions Having the Ability to Modulate Fragrance Compositions” (GIVAUDAN SA, priority 2007, published 2010).

Tests used:
Assay type in all cases: biochemical
CYP2B6 = target: T1, CYP2B6 (Homo sapiens, UniProt P20813); assay: Inhibition of human CYP2B6 (7-ethoxy-4-trifluoromethyl-coumarin, fluorescence); details: substrate 7-ethoxy-4-trifluoromethyl-coumarin 6 μM; microsomes with 1.5 pmoles CYP2B6; 40 min at 37° C.; read-out: CYP2B6 inhibitor activity IC50
T1 construct: made in house; host or cells: Sf9 insect cells, recombinant baculoviruses
T1 sequence (P20813 1-491): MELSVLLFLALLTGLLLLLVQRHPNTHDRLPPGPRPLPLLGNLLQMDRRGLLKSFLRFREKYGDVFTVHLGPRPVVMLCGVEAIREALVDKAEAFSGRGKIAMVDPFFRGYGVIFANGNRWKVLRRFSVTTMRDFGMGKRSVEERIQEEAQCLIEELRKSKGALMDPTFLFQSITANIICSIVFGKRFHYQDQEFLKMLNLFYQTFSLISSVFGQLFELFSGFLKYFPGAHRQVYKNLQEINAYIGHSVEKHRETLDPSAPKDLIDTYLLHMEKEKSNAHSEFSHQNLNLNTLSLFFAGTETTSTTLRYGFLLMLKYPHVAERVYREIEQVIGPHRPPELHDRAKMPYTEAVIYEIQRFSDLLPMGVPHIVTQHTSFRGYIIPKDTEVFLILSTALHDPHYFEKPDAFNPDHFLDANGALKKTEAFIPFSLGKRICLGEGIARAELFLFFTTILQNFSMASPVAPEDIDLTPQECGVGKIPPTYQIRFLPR
Description: Test compounds that inhibit the activity of CYP2B6 are identified by using the same principle as described in Example 1, first paragraph.
A test compound (details see Table 4) was incubated with CYP2B6 in the presence of a cytochrome P450 reductase. CYP2B6 and P450 reductase are produced using recombinant baculoviruses and co-expressing the two proteins in Sf9 insect cells as described in Example 1. Alternatively, microsomes containing CYP2B6 and the reductase are commercially available (BD Biosciences Gentest, USA). Microsomes were used which contained 1.5 pmoles CYP2B6. Potassium phosphate buffer final concentration was 100 mM, (1M stock, pH 7.4). […] The concentration of the standard substrate 7-ethoxy-4-trifluoromethyl-coumarin was 6 μM. […] The samples were incubated for 40 min at 37° C.

CYP2A6 = target: T2, CYP2A6 (Homo sapiens, UniProt P11509); assay: Evaluation of test compounds as inhibitors of CYP2A6 (coumarin to Umbelliferone, fluorescence); details: substrate coumarin 0.003 mM; microsomes with 2 pmoles CYP2A6; 60 min at 37° C.; read-out: CYP2A6 inhibitor activity IC50
T2 construct: purchased BD Biosciences Gentest, USA
T2 sequence (P11509 1-494): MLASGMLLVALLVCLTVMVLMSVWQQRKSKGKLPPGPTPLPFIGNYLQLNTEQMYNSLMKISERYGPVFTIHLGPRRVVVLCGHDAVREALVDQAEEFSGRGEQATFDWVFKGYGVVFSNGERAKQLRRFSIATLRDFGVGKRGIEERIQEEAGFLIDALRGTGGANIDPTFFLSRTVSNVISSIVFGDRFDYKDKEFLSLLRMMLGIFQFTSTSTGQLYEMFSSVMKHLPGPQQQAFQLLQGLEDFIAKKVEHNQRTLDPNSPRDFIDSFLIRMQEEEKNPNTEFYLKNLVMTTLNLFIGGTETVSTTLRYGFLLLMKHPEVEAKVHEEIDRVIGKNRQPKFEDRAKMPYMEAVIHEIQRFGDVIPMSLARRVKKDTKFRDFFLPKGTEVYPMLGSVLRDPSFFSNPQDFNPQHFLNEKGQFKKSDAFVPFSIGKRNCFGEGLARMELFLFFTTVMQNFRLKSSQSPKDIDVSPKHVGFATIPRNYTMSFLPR
Description: Test compounds that inhibit the activity of CYP2A6 are identified by using the same principle as described in Example 1, first paragraph.
A test compound (details see Table 2) was incubated with CYP2A6 in the presence of a cytochrome P450 reductase. CYP2A6 and P450 reductase were employed in form of microsomes (BD Biosciences Gentest, USA). Microsomes were used which contained 2 pmoles CYP2A6 and an amount of NADPH-P450 reductase corresponding to cytochrome c reductase activity of 87 nmole/(min×mg protein). […] The concentration of the standard substrate coumarin was 0.003 mM.
The samples were analysed spectrofluorometrically according to the procedure described in Example 1.

CYP2A13 = target: T3, CYP2A13 (Homo sapiens, UniProt Q16696); assay: Evaluation of test compounds as inhibitors of CYP2A13 (coumarin to Umbelliferone, fluorescence); details: substrate coumarin 0.006 mM; microsomes with 7 pmoles CYP2A13; 60 min at 37° C.; read-out: CYP2A13 inhibitor activity IC50
T3 construct: made in house; host or cells: Sf9 insect cells, recombinant baculovirus
T3 sequence (Q16696 1-494): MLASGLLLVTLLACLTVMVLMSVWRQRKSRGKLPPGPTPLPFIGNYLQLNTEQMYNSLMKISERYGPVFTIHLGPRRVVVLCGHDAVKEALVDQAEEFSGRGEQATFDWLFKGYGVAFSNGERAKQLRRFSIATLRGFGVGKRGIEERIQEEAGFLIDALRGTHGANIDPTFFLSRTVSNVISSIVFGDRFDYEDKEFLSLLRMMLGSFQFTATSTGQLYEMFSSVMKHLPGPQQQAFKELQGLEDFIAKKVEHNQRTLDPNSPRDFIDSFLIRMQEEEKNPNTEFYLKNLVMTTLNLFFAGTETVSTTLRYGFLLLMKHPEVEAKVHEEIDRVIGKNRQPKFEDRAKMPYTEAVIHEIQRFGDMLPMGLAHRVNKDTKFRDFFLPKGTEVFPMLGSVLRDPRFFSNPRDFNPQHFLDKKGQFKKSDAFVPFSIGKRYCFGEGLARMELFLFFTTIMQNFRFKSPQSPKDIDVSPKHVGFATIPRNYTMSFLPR
Text: P450 reductase is commercially available (BD Biosciences Gentest, USA).
Microsomes were used which contained 7 pmoles CYP2A13.

| IC50 (CYP2B6) | IC50 (CYP2A6) | IC50 (CYP2A13) | Structure (SMILES) |
| --- | --- | --- | --- |
| 3.9 µM | 3 µM | 0.5 µM | CCCC/C(=C\C1CC1)C(C)=O [Compound ID 1, (E)-3-(cyclopropylmethylene)heptan-2-one] |
| 3.5 µM | 8 µM | 1.1 µM | CCCCCC/C(=C\C1CC1)C(C)=O [Compound ID 2, (E)-3-(cyclopropylmethylene)nonan-2-one] |
| 4 µM | 7 µM | 0.3 µM | CCCCC/C(=C\C1CC1)C(C)=O [Compound ID 3, (E)-3-(cyclopropylmethylene)octan-2-one] |
|  | 148 µM | 4.8 µM | CCCCCC(Cc1ccccc1)C(C)=O (stereo not shown) [Compound ID 4, 3-phenylmethyloctan-2-one] |
|  | 141 µM | 0.6 µM | CCCCC/C(=C\c1ccccc1)C(C)=O [Compound ID 5, (E)-3-benzylideneoctan-2-one] |
